Measured values taken from patent US8435978B2, “Substituted sulfonamide compounds” (Gruenenthal GmbH, priority 2006, dated 2013).

Legend:
B1R receptor of the rat = biological target: T1, B1R receptor of the rat (Rattus norvegicus, UniProt P97583); experiment: Functional study on the bradykinin receptor 1 (B1R), FLIPR Ca2+ assay, rB1R cells; format: cell-based; settings: agonist Des-Arg9-bradykinin 100 nM, % inhibition compared with the maximum achievable inhibition; for inhibition at 10 µM: CHO-K1, test substance 10 μM, read-out: B1R Antagonism, rat [10 μM] % Inhibition
T1 construct: host or cells: CHO K1 cells (Chinese hamster ovary), stably transfected
T1 sequence (P97583 1-337): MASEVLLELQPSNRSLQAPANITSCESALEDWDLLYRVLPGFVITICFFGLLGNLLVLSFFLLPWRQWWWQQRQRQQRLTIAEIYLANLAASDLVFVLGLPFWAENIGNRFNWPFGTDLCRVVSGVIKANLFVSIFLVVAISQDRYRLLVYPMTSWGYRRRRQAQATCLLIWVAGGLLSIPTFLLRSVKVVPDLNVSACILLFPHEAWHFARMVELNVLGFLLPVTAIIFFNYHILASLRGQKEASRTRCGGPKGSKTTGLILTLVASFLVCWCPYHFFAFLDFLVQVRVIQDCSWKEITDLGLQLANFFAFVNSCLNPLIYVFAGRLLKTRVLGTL
Summary of the method: (§1)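 Cells were dye-loaded 60 min at 37 °C, equilibrated 20 min at room temperature, then given 10 μM compound. Ten minutes later the species-matched agonist was added (0.5 nM Lys-Des-Arg9-bradykinin, human; 100 nM Des-Arg9-bradykinin, rat) and Ca2+ influx suppression expressed as % of maximum inhibition.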

human B1R receptor = biological target: T2, human B1R receptor (Homo sapiens, UniProt P46663); experiment: Functional study on the bradykinin receptor 1 (B1R), FLIPR Ca2+ assay, hB1R cells; format: cell-based; settings: agonist Lys-Des-Arg9-bradykinin 0.5 nM, % inhibition compared with the maximum achievable inhibition; for inhibition at 10 µM: CHO-K1, test substance 10 μM, read-out: B1R Antagonism, human [10 μM] % Inhibition
T2 construct: host or cells: CHO K1 cells (Chinese hamster ovary), stably transfected
T2 sequence (P46663 1-353): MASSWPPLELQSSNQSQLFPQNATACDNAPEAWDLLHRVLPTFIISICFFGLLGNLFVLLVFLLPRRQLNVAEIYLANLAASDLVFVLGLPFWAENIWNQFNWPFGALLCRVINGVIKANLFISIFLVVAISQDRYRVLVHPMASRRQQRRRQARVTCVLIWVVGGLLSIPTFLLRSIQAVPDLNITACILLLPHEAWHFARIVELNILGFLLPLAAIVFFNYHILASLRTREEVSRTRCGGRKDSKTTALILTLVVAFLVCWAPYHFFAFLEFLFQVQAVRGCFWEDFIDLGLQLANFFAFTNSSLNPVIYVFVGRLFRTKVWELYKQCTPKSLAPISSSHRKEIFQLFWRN
Summary of the method: as §1

SMILES | inhibition at 10 µM (B1R receptor of the rat) [%] | inhibition at 10 µM (human B1R receptor) [%] | B1R Antagonism, rat [10 μM] % Inhibition (B1R receptor of the rat; test substance 10 μM, rB1R CHO K1 cells) [%] | B1R Antagonism, human [10 μM] % Inhibition (human B1R receptor; test substance 10 μM, hB1R CHO K1 cells) [%]
COc1cc(C)c(S(=O)(=O)N2CCCCC2COCC(=O)N2CCN(c3ccc4c(N5CCCC5)ncnc4c3)CC2)c(C)c1 (stereo not shown) [Example 168, 2-((1-(4-methoxy-2,6-dimethylphenylsulfonyl)piperidin-2-yl)methoxy)-1-(4-(4-(pyrrolidin-1-yl)quinazolin-7-yl)piperazin-1-yl)ethanone] | 98.4 | 93.8 |  | 
COc1cc(C)c(S(=O)(=O)N2CCCC2COCC(=O)N2CCN(CCN(C(C)C)C(C)C)CC2)c(C)c1 (stereo not shown) [Example 270, 1-(4-(2-(diisopropylamino)ethyl)piperazin-1-yl)-2-((1-(4-methoxy-2,6-dimethylphenylsulfonyl)pyrrolidin-2-yl)methoxy)ethanone] | 93.4 | 104 |  | 
COc1cc(C)c(S(=O)(=O)N2CCCCC2COCC(=O)N2CCN(Cc3cnc(N(C)C)nc3)CC2)c(C)c1 (stereo not shown) [Example 199, 1-(4-((2-(dimethylamino)pyrimidin-5-yl)methyl)piperazin-1-yl)-2-((1-(4-methoxy-2,6-dimethylphenylsulfonyl)piperidin-2-yl)methoxy)ethanone] | 101 | 104 |  | 
CN(C)Cc1ccc(CNC(=O)COCC2CCCN2S(=O)(=O)c2c(Cl)cc(Cl)cc2Cl)cc1 (stereo not shown) [Example 73, N-(4-dimethylaminomethyl-benzyl)-2-[1-(2,4,6-trichloro-phenylsulfonyl)-pyrrolidin-2-ylmethoxy]-acetamide] | 106 | 51 |  | 
O=C(COCC1CCCCN1S(=O)(=O)c1ccc(Cl)c(Cl)c1)N1CCN(CC2CCCCC2)CC1 (stereo not shown) [Example 68, 1-(4-cyclohexylmethyl-piperazin-1-yl)-2-[1-(3,4-dichloro-phenylsulfonyl)-piperidin-2-ylmethoxy]-ethanone] | 0 | 54.1 |  | 
COc1ccc2cc(S(=O)(=O)N3CCCCC3COCC(=O)N3CCN(C4CCN(C)CC4)CC3)ccc2c1 (stereo not shown) [Example 210, 2-((1-(6-methoxynaphthalen-2-ylsulfonyl)piperidin-2-yl)methoxy)-1-(4-(1-methylpiperidin-4-yl)piperazin-1-yl)ethanone] | 96 | 106 |  | 
COc1cc(C)c(S(=O)(=O)N2Cc3ccccc3CC2COCC(=O)N2CCC(CCN3CCCCC3)CC2)c(C)c1C (stereo not shown) [Example 276, 2-((2-(4-methoxy-2,3,6-trimethylphenylsulfonyl)-1,2,3,4-tetrahydroisoquinolin-3-yl)methoxy)-1-(4-(2-(piperidin-1-yl)ethyl)piperidin-1-yl)ethanone] | 94.2 | 98.9 |  | 
COc1cc(OC)cc(N2CCN(C(=O)COCC3CCCCN3S(=O)(=O)c3c(Cl)cc(Cl)cc3Cl)CC2)c1 (stereo not shown) [Example 253, 1-(4-(3,5-dimethoxyphenyl)piperazin-1-yl)-2-((1-(2,4,6-trichlorophenylsulfonyl)piperidin-2-yl)methoxy)ethanone] | 101 | 59.3 |  | 
O=C(COCC1CCCCN1S(=O)(=O)c1cccc2ccccc12)N1CCCN(Cc2ccccc2)CC1 (stereo not shown) [Example 6, 1-(4-benzyl-[1,4]diazepan-1-yl)-2-[1-(naphthyl-1-sulfonyl)-piperidin-2-ylmethoxy]-ethanone] |  |  | 94.88 | 102.21
Cc1cc(Br)cc(C)c1S(=O)(=O)N1CCCCC1COCC(=O)N1CCN(C2CCN(C)CC2)CC1 (stereo not shown) [Example 148, 2-((1-(4-bromo-2,6-dimethylphenylsulfonyl)piperidin-2-yl)methoxy)-1-(4-(1-methylpiperidin-4-yl)piperazin-1-yl)ethanone] | 100 | 100 |  | 
CN1CCC(N2CCN(C(=O)COCC3CCCCN3S(=O)(=O)c3cc(C(F)(F)F)ccc3C(F)(F)F)CC2)CC1 (stereo not shown) [Example 153, 2-((1-(2,5-bis(trifluoromethyl)phenylsulfonyl)piperidin-2-yl)methoxy)-1-(4-(1-methylpiperidin-4-yl)piperazin-1-yl)ethanone] | 40.6 | 81.6 |  | 

Now from value to molecule:

inhibition at 10 µM (B1R receptor of the rat) [%] | inhibition at 10 µM (human B1R receptor) [%] | B1R Antagonism, rat [10 μM] % Inhibition (B1R receptor of the rat; test substance 10 μM, rB1R CHO K1 cells) [%] | B1R Antagonism, human [10 μM] % Inhibition (human B1R receptor; test substance 10 μM, hB1R CHO K1 cells) [%] | SMILES
94.2 | 66.5 |  |  | COc1cc(C)c(S(=O)(=O)N2CCCC2COCC(=O)N2CCCC2Cc2ccccn2)c(C)c1 (stereo not shown) [Example 447, 2-((1-(4-methoxy-2,6-dimethylphenylsulfonyl)pyrrolidin-2-yl)methoxy)-1-(2-(pyridin-2-ylmethyl)pyrrolidin-1-yl)ethanone]
103 | 106 |  |  | O=C(COCC1CCCN1S(=O)(=O)c1c(Cl)cc(Cl)cc1Cl)N1CCC(N2CCOCC2)CC1 (stereo not shown) [Example 297, 1-(4-morpholinopiperidin-1-yl)-2-((1-(2,4,6-trichlorophenylsulfonyl)pyrrolidin-2-yl)methoxy)ethanone]
83.8 | -2.76 |  |  | COc1cc(C)c(S(=O)(=O)N2CCCCC2COCC(=O)Nc2ccncn2)c(C)c1 (stereo not shown) [Example 372, 2-((1-(4-methoxy-2,6-dimethylphenylsulfonyl)piperidin-2-yl)methoxy)-N-(pyrimidin-4-yl)acetamide]
103 | 94.9 |  |  | COc1cc(C)c(S(=O)(=O)N2CCCC2COCC(=O)N2CCN(c3cc(Cl)ccc3C)CC2)c(C)c1 (stereo not shown) [Example 311, 1-(4-(5-chloro-2-methylphenyl)piperazin-1-yl)-2-((1-(4-methoxy-2,6-dimethylphenylsulfonyl)pyrrolidin-2-yl)methoxy)ethanone]
96.3 | 96.7 |  |  | COc1cc(C)c(S(=O)(=O)N2CCCC2COCC(=O)N2CCC(c3nc4cc(C)ccc4[nH]3)CC2)c(C)c1 (stereo not shown) [Example 474, 2-((1-(4-methoxy-2,6-dimethylphenylsulfonyl)pyrrolidin-2-yl)methoxy)-1-(4-(5-methyl-1H-benzo[d]imidazol-2-yl)piperidin-1-yl)ethanone]
100 | 77.9 |  |  | COc1cc(C)c(S(=O)(=O)N2CCCCC2COCC(=O)N2CCN(Cc3ccc(Cl)c(Cl)c3)CC2)c(C)c1 (stereo not shown) [Example 381, 1-(4-(3,4-dichlorobenzyl)piperazin-1-yl)-2-((1-(4-methoxy-2,6-dimethylphenylsulfonyl)piperidin-2-yl)methoxy)ethanone]
104 | 72.6 |  |  | O=C(COCC1CCCCN1S(=O)(=O)c1c(Cl)cccc1Cl)N1CCN(c2cccc(C(F)(F)F)c2)CC1 (stereo not shown) [Example 481, 2-((1-(2,6-dichlorophenylsulfonyl)piperidin-2-yl)methoxy)-1-(4-(3-(trifluoromethyl)phenyl)piperazin-1-yl)ethanone]
102 | 51.4 |  |  | CCN(Cc1ccncc1)C(=O)COCC1CCCCN1S(=O)(=O)c1c(C)cc(OC)cc1C (stereo not shown) [Example 510, N-ethyl-2-((1-(4-methoxy-2,6-dimethylphenylsulfonyl)piperidin-2-yl)methoxy)-N-(pyridin-4-ylmethyl)acetamide]
99.3 | 102 |  |  | COc1cc(C)c(S(=O)(=O)N2Cc3ccccc3CC2COCC(=O)N2CCN(CCCN(C)C)CC2)c(C)c1C (stereo not shown) [Example 560, 1-(4-(3-(dimethylamino)propyl)piperazin-1-yl)-2-((2-(4-methoxy-2,3,6-trimethylphenylsulfonyl)-1,2,3,4-tetrahydroisoquinolin-3-yl)methoxy)ethanone]
95.9 | 22.3 |  |  | COc1cc(C)c(S(=O)(=O)N2CCCCC2COCC(=O)NCc2cccnc2)c(C)c1 (stereo not shown) [Example 345, 2-((1-(4-methoxy-2,6-dimethylphenylsulfonyl)piperidin-2-yl)methoxy)-N-(pyridin-3-ylmethyl)acetamide]
100 | 99.9 |  |  | COc1cc(C)c(S(=O)(=O)N2CCCCC2COCC(=O)N2CCN(CCn3c(C)ccc3C)CC2)c(C)c1 (stereo not shown) [Example 559, 1-(4-(2-(2,5-dimethyl-1H-pyrrol-1-yl)ethyl)piperazin-1-yl)-2-((1-(4-methoxy-2,6-dimethylphenylsulfonyl)piperidin-2-yl)methoxy)ethanone]
98.7 | 54.2 |  |  | COc1cc(C)c(S(=O)(=O)N2CCCC2COCC(=O)NCCCN2CCCCC2)c(C)c1 (stereo not shown) [Example 522, 2-((1-(4-methoxy-2,6-dimethylphenylsulfonyl)pyrrolidin-2-yl)methoxy)-N-(3-(piperidin-1-yl)propyl)acetamide]
